Reference: ChEMBL document CHEMBL1201862, “PubChem BioAssay data set” (2004)
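Five compound concentrations were applied to cells in 96-well plates for 48 hours; endpoints were derived by simple linear interpolation of the resulting dose-response curve. GI50 marks 50% less growth.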 Activity calls are given as the source filed them. Cut-off read from the data, not from the text of the source: active = GI50 up to about 1.1 µM and inactive = higher.

Key:
Assay in all cases: inhibition of tumour cell growth, NCI panel, 48 h
[1] = test system: M14
[2] = test system: HCC 2998
[3] = test system: SK-MEL-2
[4] = test system: EKVX
[5] = test system: MDA-N
[6] = test system: DLD-1
[7] = test system: SK-OV-3
[8] = test system: UO-31
[9] = test system: K562
[10] = test system: HL-60
[11] = test system: IGROV-1
[12] = test system: CCRF-CEM
[13] = test system: CAKI-1
[14] = test system: BT-549
[15] = test system: SF-539
[16] = test system: SF-268
[17] = test system: NCI-H23
[18] = test system: DU-145
[19] = test system: NCI/ADR-RES
[20] = test system: PC-3

Measured: GI50

Cc1ccccc1C1=C/C(=C(\SS/C(C(=O)c2ccc(OCC(=O)O)c(Cl)c2Cl)=C2\C=C(c3ccccc3C)SS2)C(=O)c2ccc(OCC(=O)O)c(Cl)c2Cl)SS1
inactive: [1] 25.5 µM | [2] 39.4 µM | [3] 21.4 µM | [4] 37.8 µM | [5] 34.1 µM | [6] 23.8 µM | [7] 39.9 µM | [8] 20.9 µM | [9] 8.65 µM | [10] 2.96 µM | [11] 16.4 µM | [12] 12.5 µM | [13] 37.6 µM | [14] 33.3 µM | [15] 17.2 µM | [16] 18 µM | [17] 21.5 µM | [18] 39.4 µM | [19] 63 µM | [20] 6.92 µM
